Data as given in the CheMixHub ionic liquid set.
Where “and” joins values, the source holds several entries; their conditions need not be identical. Equal entries are not always repeated.

Assay: xn = mol fraction of the nth substance listed

CC(=O)[O-].CCCC[NH2+]CCO + CCCC[n+]1ccn(C)c1.O=S(=O)([N-]S(=O)(=O)C(F)(F)F)C(F)(F)F
101 kPa
Settings	viscosity [mPa·s]
283.15 K, x1 = 0.1012	127.4
283.15 K, x1 = 0.6987	1145
283.15 K, x1 = 0.8008	1850
283.15 K, x1 = 1	3634
288.15 K, x1 = 0.3002	164.2
288.15 K, x1 = 0.8008	1170
288.15 K, x1 = 0.901	1735
298.15 K, x1 = 0.2257	78.02
298.15 K, x1 = 0.8008	515
298.15 K, x1 = 0.901	731
298.15 K, x1 = 1	921
303.15 K, x1 = 0.4998	126.1
303.15 K, x1 = 0.8008	356
308.15 K, x1 = 0.3002	56.19
308.15 K, x1 = 1	423
313.15 K, x1 = 0.4998	73.4
313.15 K, x1 = 0.6987	130.9
313.15 K, x1 = 0.8008	182
313.15 K, x1 = 0.901	243.8
313.15 K, x1 = 1	297
318.15 K, x1 = 0.2257	32.2
318.15 K, x1 = 0.6987	98.5
318.15 K, x1 = 0.901	176.6
323.15 K, x1 = 0.6987	75.5
328.15 K, x1 = 0.2257	22.42
328.15 K, x1 = 0.6018	46.47
328.15 K, x1 = 0.901	98
338.15 K, x1 = 0.6987	37.11
343.15 K, x1 = 0.2257	14.05
343.15 K, x1 = 0.4998	20.65
343.15 K, x1 = 0.901	45.6
343.15 K, x1 = 1	51.9
348.15 K, x1 = 0.423	15.42
353.15 K, x1 = 0.901	29.26
353.15 K, x1 = 1	32.6
358.15 K, x1 = 0.3002	9.99
358.15 K, x1 = 0.423	11.46
358.15 K, x1 = 0.4998	12.68
363.15 K, x1 = 0.423	9.98
363.15 K, x1 = 1	21.43
368.15 K, x1 = 0.8008	14.29
368.15 K, x1 = 1	17.63
373.15 K, x1 = 0.3002	6.99
373.15 K, x1 = 0.423	7.73
373.15 K, x1 = 0.4998	8.35
373.15 K, x1 = 1	14.64

CC[n+]1ccn(C)c1.[Cl-] + OCC(O)CO
Settings	viscosity [mPa·s]
303.15 K, 100 kPa, x1 = 0.333	126.9
313.15 K, 101 kPa, x1 = 0.667	135.5

CCCn1cc[n+](C)c1C.O=[N+]([O-])c1cn[n-]c1 + COCCOCCOCCOCCOC
100 kPa
Settings	viscosity [mPa·s]
278.15 K, x2 = 0.399	252
283.15 K, x2 = 0.1	1670
283.15 K, x2 = 0.201	743
283.15 K, x2 = 0.499	88
288.15 K, x2 = 0.1	929
288.15 K, x2 = 0.201	449
298.15 K, x2 = 0.399	62
313.15 K, x2 = 0.201	76

CCCC[N+](CCCC)(CCCC)CCCC.[Cl-] + CC[C@H](C)[C@H](N)C(=O)O
electrical conductivity [S/m], 100 kPa
Settings	313.15 K	323.15 K	333.15 K	343.15 K	353.15 K
x1 = 0.8889	0.0522	0.0655	0.0876	0.1	0.119
x1 = 0.9	0.0263	0.045	0.0615	0.0789	0.105
x1 = 0.9091	0.0364	0.0499	0.072	0.0843	0.111

CCCC[n+]1ccn(C)c1.[Br-] + CCCOCCO
viscosity [mPa·s], 100 kPa
Settings	x1 = 0.1001	x1 = 0.2003	x1 = 0.2994	x1 = 0.4	x1 = 0.5002	x1 = 0.6002	x1 = 0.701	x1 = 0.7969	x1 = 0.9003	x1 = 1
298.15 K	15.5	50	100	152	204	270	378	560	910	1451
303.15 K	10.3	28.9	53.7	81.1	110	148	206	305	503	837
308.15 K	7.54	19.1	35.1	52	69.9	92.1	126	180	293	506
313.15 K	6	14.5	25.9	37	48.8	61.7	81.8	114	184	330

CC[P+](CC)(CC)CCOC.O=S(=O)([N-]S(=O)(=O)C(F)(F)F)C(F)(F)F + O=S(=O)([N-]S(=O)(=O)C(F)(F)F)C(F)(F)F.[Li+]
101.33 kPa
Settings	electrical conductivity, 298.2 K [S/m]	electrical conductivity, 312.2 K [S/m]	electrical conductivity, 361.3 K [S/m]	viscosity, 298.2 K [mPa·s]	viscosity, 355.3 K [mPa·s]
x2 = 0.25	1	–	–	170	17
x2 = 0.39	–	0.8	1.5	–	–

CC[n+]1ccn(C)c1C.F[B-](F)(F)F + CO
101.3 kPa
Settings	viscosity [mPa·s]
293.15 K, x1 = 0.1313	1.92
298.15 K, x1 = 0.09153	1.35
298.15 K, x1 = 0.2607	3.98
303.15 K, x1 = 0.03641	0.859
303.15 K, x1 = 0.1313	1.64
308.15 K, x1 = 0.06083	1.022
308.15 K, x1 = 0.09153	1.167
308.15 K, x1 = 0.1313	1.51
313.15 K, x1 = 0.1848	1.92
318.15 K, x1 = 0.3768	5.52
323.15 K, x1 = 0.03641	0.664
323.15 K, x1 = 0.09153	0.947
323.15 K, x1 = 0.1313	1.21
328.15 K, x1 = 0.09153	0.874
328.15 K, x1 = 0.1313	1.132
328.15 K, x1 = 0.3768	4.55
333.15 K, x1 = 0.1313	1.065
333.15 K, x1 = 0.1848	1.41

[Cl-].c1ccc(C[P+](c2ccccc2)(c2ccccc2)c2ccccc2)cc1 + OCCOCCO
101 kPa, x2 = 0.875
Settings	electrical conductivity [S/m]	viscosity [mPa·s]
313.15 K	0.0935	64.2
353.15 K	0.212	17.1

CCCC[N+](CCCC)(CCCC)CCCC.[Cl-] + NCCCO
viscosity [mPa·s], 101.3 kPa
Settings	293.15 K	298.15 K	303.15 K	308.15 K	313.15 K	318.15 K	323.15 K	328.15 K	333.15 K
x2 = 0.8	101.4	77.4	57.8	44.6	36.2	28.9	23.4	19.4	16.1
x2 = 0.8571	70.7	53.9	41.7	32.8	26	21.1	17.3	14.2	12
x2 = 0.8889	60.2	46.1	35.7	28	22.5	18.3	15	12.5	10.7

CCCCCCCCCCCC[N+](C)(C)Cc1ccccc1.[Cl-] + CC(C)C[C@H](NC(=O)CN)C(=O)O + O
electrical conductivity [S/m], 101 kPa
Settings	293.15 K	298.15 K	303.15 K	308.15 K	313.15 K
x2 = 0.0008999, x1 = 0.0002654	0.0792	0.0889	0.0993	0.11	0.123
x2 = 0.0008999, x1 = 0.0002843	0.0824	0.0926	0.104	0.116	0.129
x2 = 0.0008999, x1 = 0.0003023	0.0854	0.096	0.107	0.12	0.134
x2 = 0.0008999, x1 = 0.0003252	0.0892	0.101	0.113	0.126	0.14
x2 = 0.0009, x1 = 0.0001699	0.0609	0.068	0.0754	0.0833	0.0918
x2 = 0.0009, x1 = 0.000197	0.0669	0.0747	0.083	0.0919	0.102
x2 = 0.0009, x1 = 0.000222	0.0716	0.0801	0.0893	0.0991	0.11
x2 = 0.0009, x1 = 0.0002447	0.0757	0.0848	0.0946	0.105	0.117
x2 = 0.0009001, x1 = 5.034e-05	0.0218	0.0243	0.0272	0.0302	0.0333
x2 = 0.0009001, x1 = 7.251e-05	0.03	0.0335	0.0373	0.0412	0.0454
x2 = 0.0009001, x1 = 9.522e-05	0.038	0.0425	0.0473	0.0521	0.0573
x2 = 0.0009001, x1 = 0.0001178	0.0458	0.0511	0.0567	0.0625	0.0687
x2 = 0.0009001, x1 = 0.0001434	0.0539	0.0601	0.0666	0.0734	0.0808
x2 = 0.001793, x1 = 4.141e-05	0.0191	0.0215	0.0243	0.0271	0.0301
x2 = 0.001793, x1 = 6.45e-05	0.0271	0.0306	0.0342	0.038	0.0421
x2 = 0.001793, x1 = 8.905e-05	0.0354	0.0397	0.0444	0.0491	0.0542
x2 = 0.001793, x1 = 0.0001112	0.0424	0.0477	0.0531	0.0587	0.0648
x2 = 0.001793, x1 = 0.0001367	0.05	0.056	0.0624	0.069	0.0761
x2 = 0.001793, x1 = 0.0001631	0.0569	0.0637	0.0707	0.0787	0.0879
x2 = 0.001793, x1 = 0.0001904	0.0632	0.0708	0.0791	0.0877	0.0969
x2 = 0.001793, x1 = 0.0002156	0.0683	0.0767	0.0859	0.0955	0.106
x2 = 0.001793, x1 = 0.0002389	0.0727	0.0819	0.0918	0.102	0.114
x2 = 0.001793, x1 = 0.00026	0.0766	0.0863	0.0969	0.108	0.121
x2 = 0.001793, x1 = 0.0002803	0.0802	0.0905	0.102	0.114	0.127
x2 = 0.001793, x1 = 0.0003015	0.0838	0.0947	0.107	0.12	0.133
x2 = 0.001793, x1 = 0.0003211	0.0872	0.0986	0.112	0.125	0.139

COS(=O)(=O)[O-].Cn1cc[n+](C)c1 + CCO
Settings	viscosity [mPa·s]
328.15 K, 100 kPa, x2 = 0.945	0.96

CCCC[n+]1ccn(C)c1C.NCC(=O)[O-] + O
100 kPa
Settings	viscosity [mPa·s]
293.15 K, x1 = 0.3904	66
298.15 K, x1 = 0.0999	13.7
298.15 K, x1 = 0.1982	22.2
298.15 K, x1 = 0.3003	34.6
298.15 K, x1 = 0.6	94
298.15 K, x1 = 0.6999	119
298.15 K, x1 = 0.798	146
303.15 K, x1 = 0.9001	125
308.15 K, x1 = 0.0999	7.8
308.15 K, x1 = 0.3003	20.2
308.15 K, x1 = 0.3904	28.4
308.15 K, x1 = 0.6999	65
313.15 K, x1 = 0.3904	23.4
313.15 K, x1 = 0.9001	71
318.15 K, x1 = 0.6999	46.4
318.15 K, x1 = 0.798	54

CS(C)=O + CCCC[n+]1ccn(C)c1.F[B-](F)(F)F
100 kPa, x2 = 0
Settings	electrical conductivity [S/m]	viscosity
298.15 K	0.042	1.99 mPa·s and 2.012 mPa·s
303.15 K	–	1.8 mPa·s
308.15 K	–	1.65 mPa·s
313.15 K	–	1.54 mPa·s

CCCC[N+](CCCC)(CCCC)CCCC.[Cl-] + N[C@@H](CO)C(=O)O
101 kPa
Settings	electrical conductivity, 313.15 K [S/m]	electrical conductivity, 323.15 K [S/m]	electrical conductivity, 333.15 K [S/m]	electrical conductivity, 343.15 K [S/m]	electrical conductivity, 353.15 K [S/m]	viscosity, 313.15 K [mPa·s]	viscosity, 323.15 K [mPa·s]	viscosity, 333.15 K [mPa·s]	viscosity, 343.15 K [mPa·s]	viscosity, 353.15 K [mPa·s]
x2 = 0.09091	0.024	0.035	0.06	0.09	0.13	1110	490	260	141	86
x2 = 0.1	0.0298	0.0451	0.0631	0.093	0.136	1220	600	297	158	97
x2 = 0.1111	0.0102	0.0181	0.0425	0.0933	0.136	1000	480	237	135	83
